Data from US10034853B2, “PPAR α/γ dual agonist and its application” (Shanghai University of Traditional Chinese Medicine, priority 2013, dated 2018).
Entries after “also recorded” stand apart in the source; their conditions may differ. Read-outs that look alike come from different tables or passages of the source.

How the values were obtained:
[1] = tested on: diet-induced obese (dio) C57BL/6J mice; assay: Lipid disorders in diet-induced obese (dio) mice; details: for effect on food intake / reduction of serum triglyceride (TG) levels compared to HFD group / effect on body weight: 3-week treatment; for reduction of serum triglyceride (TG) levels compared to HFD group: compound A 2 g per kg HFD; for effect on body weight: vs HFD group
Procedure: For the therapy study, the six-week old female C57BL/6J mice were fed with high-fat diet (HFD, 60% of calories from fat) for 12 weeks to induce obesity and insulin resistance (DIO). The mice were divided into 3 groups according to body weight and fasting blood glucose (n=9, 7, 7, 7). […] After 21 days of dosing, we took blood from heart of anaesthetized fasted 10-hour mice. Tissues were collected and stored at −80° C.
Serum was used for all the analysis of blood parameters.

[2] = tested on: 3T3-L1 cells; assay: 3T3-L1 preadipocyte differentiation (oil red O staining); format: cell-based; details: for adipocyte differentiation activity relative to compound A: 25 μM vs compound A at 5 μM
Procedure: 3T3-L1 fibroblast cell line is widely used for adipocyte differentiation models. […] For adipocyte differentiation, 3T3-L1 cells were seeded into 12-well plate to full confluence for 2 days and then incubated with completed medium containing 10 μg/mL human insulin (Sigma-Aldrich), 1 μM dexamethasone (Sigma-Aldrich) and the test compounds at 37° C. and 7.5% CO2. After 2 days of induction, the medium was replaced with a maintenance medium (completed medium including 10 μg/mL insulin and the test compounds) for additional 2 days (Day 0-Day 2). Thereafter, the medium was refreshed with fresh medium with the test compounds for 4 days (Day 2-Day 6). The test compounds dissolved in dimethylsulfoxide (DMSO) was diluted by the completed medium (final DMSO concentration, 0.1%) at indicated concentration. rosiglitazone was used as a positive compound. The 3T3-L1 cells were washed with PBS twice, fixed with 10% formalin at room temperature for 10 minutes and then stained with oil red O (Sigma-Aldrich, St. Louis, Mo.) at 37° C. for 30 minutes. The pictures were taken using an Olympus microscope (Tokyo, Japan).

[3] = tested on: db/db mice; assay: Blood glucose and glucose tolerance in db/db mice; format: in vivo; details: for reduction of fasting blood glucose compared with vehicle: after 6 days treatment, intragastric
Procedure: Mice were fasted 8 hours before subjected to a dose of 1 g glucose per kg body weight. Blood was taken from tail and measured at 0, 15, 30, 60 and 90 minutes. The data were expressed with means±SE, n=9 for each group.
The db/db mice with leptin receptor mutation begin to show the symptoms of obesity, hyperlipidemia, insulin resistance, hyperglycemia and others at 4 weeks. This is an ideal kind of mice model for obese diabetic mice.
The db/db mice were kept in polycarbonate cages under regulated temperature (22-23° C.) and controlled humidity (50%-60%) with 12-hour light/12-hour dark cycle. All the mice were allowed to adapt to the standard housing conditions. Mice and food were weighed regularly to investigate the changes in body weight and food intake.
During the experimental period, the eight-week old db/db mice were treated with water and a normal standard cylindrical diet. […] An intraperitoneal glucose tolerance test (IPGTT) was carried out after one week of treatment. Mice were fasted 8 hours before subjected to a dose of 1 g glucose per kg body weight. Blood was taken from tail at 0, 15, 30, 60, and 90 minutes. After 11 days of treatment, 0.75 U/kg body weight of insulin was injected intraperitoneally to perform intraperitoneal insulin tolerance test (IPITT). Blood was taken from tail at 0, 15, 30, 60, 90 and 120 minutes. After 20 days, all the db/db mice were anaesthetized by pentobarbital sodium after 8-hour fast. Blood and tissues were collected and stored at −80° C. for the further analysis.

[4] = biological target: T1, PPAR γ (Mus musculus, UniProt P37238); assay: Dual-luciferase reporter gene assay, PPAR γ transcriptional activity in 293T cells; format: cell-based; details: for transcription activity on PPAR γ relative to compound A: 293T reporter assay
T1 construct: pCMX-Gal-mPPAR γ LBD plasmids; expressed in transfected cells; host or cells: 293T cells (ATCC)
T1 sequence (P37238 238-503 limits assumed): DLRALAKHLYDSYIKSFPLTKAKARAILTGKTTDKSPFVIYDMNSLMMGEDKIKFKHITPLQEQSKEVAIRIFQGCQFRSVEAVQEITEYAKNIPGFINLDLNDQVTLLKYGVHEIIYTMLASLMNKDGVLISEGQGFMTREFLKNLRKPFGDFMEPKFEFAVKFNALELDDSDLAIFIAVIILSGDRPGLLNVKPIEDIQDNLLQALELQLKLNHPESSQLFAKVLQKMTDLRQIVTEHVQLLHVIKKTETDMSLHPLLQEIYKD
Procedure: Reporter gene assay was used to detect the impacts of the compounds A, B and C on the transcriptional activities of PPAR γ and PPAR α. The inventors used the PPAR-α, α-LBD, γ and γ-LBD plasmids to detect the impacts of bavachinin on transcription activities of these two PPAR subtype. All the transfections were added to 293T cells (ATCC) overnight and then removed. The positive agonists or the test compounds were diluted in fresh media, and then added into the cells. After incubating for another 24 hours, the cells were harvested to detect luciferase activity.
293T cells were cultured in Dulbecco's modified Eagle's medium (DMEM) with 10% fetal bovine serum and 1% Penicillin/Streptomycin anti-DMEM high glucose medium at 37° C. and 5% CO2. 293T cells in log phase were seeded into 48-well plate with the cell density of 1×10^5˜2×10^5 cells/mL.
(§1) pCMX-Gal-mPPAR γ LBD plasmids, Gal4 reporter vector MH100×4-TK-Luc recombinant plasmids and renilla luciferase internal reference plasmids; PPAR α-LBD plasmids; PPAR γ plasmids; PPAR α plasmids.
When the cells grew to a density of 50 to 80% after seeded in plate overnight, it's good to carry out the transfection. All the transfections, which included 10 μg of total plasmids and 15 μL FuGENE-HD transfection reagent per mL of DMEM, were placed at room temperature for 15 minutes and then added to 293T cells (ATCC) overnight and then removed.
After incubating overnight, the compound A or B or C or positive PPAR γ/α agonists rosiglitazone (as the specific agonistic ligand of PPAR γ) or WY14643 (as the specific agonistic ligand of PPAR α) with different concentrations diluted by complete medium (2, 5, 10, 25, 50 μmol/L) were added into cells. The final concentration of positive agonists was 20 μmol/L).
(§2) After 24 hours, cells were washed twice with PBS to remove the remaining cell culture medium; 65 μL lysis buffer was added into each well and oscillated by the shaker for 15 minutes until cell lysis was complete. Finally the cell lysate was transferred into a 1.5 mL centrifuge tube; The cell lysate was centrifuged at 5000 rpm for 5 minutes and then 10 μL supernatant was taken to a new centrifuge tube for testing.
(§3) We conducted the luciferase reporter assay using Dual-Luciferase Reporter Assay System (Promega, USA). The transfection efficiency was normalized using the internal reference renilla luciferase activity. All transfection experiments were independently repeated for at least three times, with each experimental group having at least two deputy holes.
(§4) The Bio-Tek, Synergy HT multifunctional microplate reader was used to detect the fluorescence intensity of firefly and renilla. After normalizing via the internal reference renilla luciferase activity, the relative luciferase activity was expressed by the ratio of the fluorescence intensity of firefly luciferase and renilla luciferase.
(§5) Data were expressed as mean±standard error of mean (SEM). One-way ANOVA was used to analyze statistically differences between groups with LSD test for multiple comparisons using SPSS 16.0. The EC50 values were calculated using GraphPad Prism 5.0. A P value≤0.05 was regarded as statistically significant different.

[5] = biological target: T2, PPAR α (Homo sapiens, UniProt Q07869); assay: Dual-luciferase reporter gene assay, PPAR α transcriptional activity in 293T cells; format: cell-based; details: for EC50: 293T cells, luciferase reporter, 24 hours incubation; for transcription activity on PPAR α relative to compound A: 293T reporter assay
T2 construct: PPAR α-LBD plasmids; expressed in transfected cells; host or cells: 293T cells (ATCC)
T2 sequence (Q07869 239-466 limits assumed): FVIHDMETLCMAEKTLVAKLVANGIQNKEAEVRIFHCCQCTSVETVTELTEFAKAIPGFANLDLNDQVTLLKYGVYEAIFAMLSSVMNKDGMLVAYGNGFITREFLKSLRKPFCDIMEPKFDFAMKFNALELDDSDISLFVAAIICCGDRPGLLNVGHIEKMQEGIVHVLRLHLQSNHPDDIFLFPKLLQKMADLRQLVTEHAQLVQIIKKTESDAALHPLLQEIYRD
Procedure: The inventors used the PPAR-α, α-LBD, γ and γ-LBD plasmids to detect the impacts of bavachinin on transcription activities of these two PPAR subtype. […] The positive agonists or the test compounds were diluted in fresh media, and then added into the cells. After incubating for another 24 hours, the cells were harvested to detect luciferase activity.
as §1
When the cells grew to a density of 50 to 80% after seeded in plate overnight, it's good to carry out the transfection.
The final concentration of positive agonists was 20 μmol/L).
as §2, §3, §4, §5

[6] = tested on: PPAR α/γ target genes in HepG2 cells; assay: Real-time PCR of PPAR α/γ target genes in HepG2 cells; format: cell-based; details: 24 hours, 25 μM (stated for compound A); for expression of PPAR α/γ target genes (GLUT4, CD36, LPL, Fasn, ACO): β-actin reference
Procedure: Used Real-time fluorescence quantitative PCR (Real-time PCR) to detect how the compounds A, B and C regulate the expression of PPAR γ/α-related target genes in liver HepG2 cells.
HepG2 cells was grown in Dulbecco's modified Eagle's medium (DMEM, HyClone) with 10% fetal bovine serum (FBS, HyClone) and 1% Penicillin/Streptomycin (Gibco) at 37° C. and 5% CO2. HepG2 cells at logarithmic growth phase were plated in 12-well plates with the cell density was 5×10^4 cells/mL, and then were treated by compound A for 24 hours. Quantitative PCR analysis was performed using β-actin as an endogenous reference.
When the density of HepG2 cells was grown about 60%, compound A (dissolved in DMSO as a stock solution) diluted with complete medium was added into cells. The final concentration was 25 μM (μmol/L).
After 24 hours, total RNA of treated HepG2 cells was isolated using TRIzol reagent (Takara, Japan) according to the manual.
The total RNA was reversely transcribed to cDNA applying the reverse transcription kit (Thermo, Mass., USA). We established 20 μL reverse transcription reaction system according to Table 2. The reaction system was mixed and placed at room temperature (25° C.) for 5 minutes, incubated at 42° C. for 1 hour, incubated at 70° C. for 5 minutes. cDNA was stored at −20° C.
All primers were designed by the Prime 3.0 software. Briefly, after an initial denaturation at 95° C. for 10 minutes, the cDNA was amplified by 40 cycles of PCR (95° C., 15 seconds; 60° C., 60 seconds). All experiments were repeated at least three times independently.

[7] = 100 mg/kg/d stated for compound A
[8] = 293T cells, luciferase reporter, 24 hours incubation, read-out: EC50 (μM) PPAR γ

Structure (SMILES) | effect on food intake [1] | reduction of serum triglyceride (TG) levels compared to HFD group [1] | effect on body weight [1] | adipocyte differentiation activity relative to compound A ([2]; 3T3-L1 cells) | reduction of fasting blood glucose compared with vehicle [3, 7] | EC50 [4, 8] [µM] | transcription activity on PPAR γ relative to compound A [4] | EC50 ([5]; read-out: EC50 (μM) PPAR α) [µM] | transcription activity on PPAR α relative to compound A [5] | expression of PPAR α/γ themselves [6] | expression of PPAR α/γ target genes (GLUT4, CD36, LPL, Fasn, ACO) [6] | also measured
COc1cc2c(cc1CC=C(C)C)C(=O)CC(c1ccc(OC(C)=O)cc1)O2 (stereo not drawn) [compound C] | without affecting | 12% | without affecting | nearly equal to the activity of compound A at 5 μM | ~8% | 12.3 | less than that of compound A | 12.9 | less than that of compound A | did not effect | significantly increased | –
COc1cc2c(cc1CC=C(C)C)C(=O)C[C@@H](c1ccc(O)cc1)O2 [compound A, bavachinin] | without affecting; also recorded: did not affect | around 23% | without affecting; also recorded: did not increase | – | about 20% | – | – | – | – | did not effect | significantly increased | serum TG levels in contrast to HFD group ([1]; FIG. 6D): significantly reduced; 3T3-L1 adipocyte differentiation ([2]; 1 μM, with insulin and dexamethasone, 6 days, oil red O): induced 3T3-L1 cell differentiation and lipid droplets formation; 3T3-L1 adipocyte differentiation ([2]; 10 μM, with insulin and dexamethasone, 6 days, oil red O): almost fully differentiated; 3T3-L1 adipocyte differentiation ([2]; 25 μM, with insulin and dexamethasone (FIG. 5C)): induced to differentiate into adipocytes; potency on adipocyte differentiation relative to rosiglitazone ([2]; 3T3-L1 cells): as potent as rosiglitazone; glucose tolerance (IPGTT) ([3]; 100 mg/kg/d, 1 g/kg glucose after 8 hours fast): improved; EC50 [4]: 8.6 µM; PPAR γ transactivation compared with rosiglitazone (ROS) ([4]; compound at 25 μM vs rosiglitazone at 20 μM): nearly equal to PPAR γ agonist rosiglitazone (ROS) at 20 μM; EC50 ([5]; EC50 (μM) PPAR α): 17.3 µM; PPAR α transactivation compared with full agonist WY14643 ([5]; WY14643 final concentration 20 μmol/L): more transactivation
CC(=O)Oc1ccc(C2CC(=O)c3cc(CC=C(C)C)c(OC(C)=O)cc3O2)cc1 (stereo not drawn) [compound B] | without affecting | 20% | without affecting | nearly equal to the activity of compound A at 5 μM | about 10% | 18.8 | less than that of compound A | 28.5 | less than that of compound A | did not effect | significantly increased | –
CN(CCOc1ccc(CC2SC(=O)NC2=O)cc1)c1ccccn1 (stereo not drawn) [rosiglitazone, reference compound] | – | – | – | – | – | – | – | – | – | – | – | reduction of fasting blood glucose compared with vehicle ([3]; rosiglitazone 5 mg/kg/d): 5%
